Changes are numbered by the printed parent chain. Where two headings read alike, the source gives them in different places.
How the values were obtained:
Gal4-RORγ H479L = target: T1, Gal4-RORγ H479L (Homo sapiens, UniProt P51449, H479L); assay: Gal4-RORγ H479L mutant luciferase assay; details: 5 μM
T1 sequence (P51449 269-508 H479L limits assumed): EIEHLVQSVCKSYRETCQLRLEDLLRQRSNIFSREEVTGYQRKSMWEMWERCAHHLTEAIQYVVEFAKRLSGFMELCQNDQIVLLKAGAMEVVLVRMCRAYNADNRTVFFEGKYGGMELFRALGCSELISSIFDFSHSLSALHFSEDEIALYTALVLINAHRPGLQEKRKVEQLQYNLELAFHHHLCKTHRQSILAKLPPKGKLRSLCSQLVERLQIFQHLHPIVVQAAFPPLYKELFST
Description: Gal4-hRORγ H323A and H479L mutants were generated using the QuikChange Lightning Site-Directed Mutagenesis Kit according to the manufacturer’s instructions. Briefly, 10 ng template DNA (Gal4-hRORγ) was PCR-amplified with the respective mutagenic forward and reverse primers listed in Table S3, which were designed using the QuikChange Primer Design tool (https://www.agilent.com/store/primerDesignProgram.jsp). […] Two μL of the PCR product were then transformed into XL1-Blue competent E. coli according to a protocol provided by NEB. […] After centrifuging the main culture at 5691g for 10 min, the supernatant was decanted, and plasmid preparation was performed using the PureLink HiPure Plasmid Midiprep Kit according to the manufacturer’s instructions. DNA yields and purities were checked using a NanoDrop 2000c (Thermo Fisher Scientific, Waltham, MA, USA).

[1] = tested on: Il17a and Il17f (Il17a/f); assay: RT-qPCR of Il17a and Il17f in EL-4-mRORγt cells; format: cell-based, murine; details: then 4.5-h PMA and ionomycin
Description: For RT-qPCR assays, 5 × 10^5 EL-4-mRORγt cells were seeded in 500 μL complete DMEM per well of a 24-well plate and treated with the vehicle control, the positive control, or the compounds of interest. After incubation for 20–24 h, cells were stimulated with Cell Activation Cocktail (PMA: 40.5 μM, ionomycin: 669.3 μM; 500X) for 4.5 h. Afterward, total RNA was isolated using the innuPREP RNA Mini Kit 2.0 according to the manufacturer’s instructions. According to the manufacturer’s instructions, 1 μg RNA was reverse-transcribed into cDNA using the High-Capacity cDNA Reverse Transcription Kit. RT-qPCR was performed using the Luna Universal qPCR Master Mix on a LightCycler 480 (Roche Diagnostics, Rotkreuz, Switzerland) according to the manufacturer’s instructions. […] Livak’s 2−ΔΔCt method was employed to determine the expression levels of RORγ target genes. This involved normalizing the target gene expression to the expression levels of the control gene 18s, followed by further normalization to the vehicle control.

hRORγ LBD = target: T2, hRORγ LBD (Homo sapiens, UniProt P51449); assay: Thermal stability by nano differential scanning fluorimetry (nanoDSF); format: binding; details: RORγ-LBD with 4 equiv ligand vs without ligand; mean ± SD
T2 construct: His tag (N, cleaved yes); made in house; host or cells: Escherichia coli BL21 DE3
T2 sequence (P51449 264-518): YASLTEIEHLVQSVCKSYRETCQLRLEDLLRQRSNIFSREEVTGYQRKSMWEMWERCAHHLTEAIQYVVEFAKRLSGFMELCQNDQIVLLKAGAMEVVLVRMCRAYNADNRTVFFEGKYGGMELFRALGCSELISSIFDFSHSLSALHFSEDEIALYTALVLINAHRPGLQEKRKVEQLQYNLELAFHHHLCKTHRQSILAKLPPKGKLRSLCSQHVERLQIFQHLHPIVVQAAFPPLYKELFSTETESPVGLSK
Description: Soluble proteins were purified on Ni Hitrap FFcrude column (Cytiva), followed by His tag removal by thrombin (MP Biomedicals) cleavage and by size exclusion chromatography on HiLoad Superdex200 column (Cytiva) equilibrated in 20 mM Tris-HCl pH 7.5, 150 mM NaCl, 1 mM TCEP (Hampton Research). Purity and homogeneity of the hRORγ LBD were assessed by SDS-PAGE. The purified protein was concentrated to 0.5–1.0 mg/mL with an Amicon Ultra 10 kDa MWCO. The aliquots of purified LBD were incubated with 4 equiv ligands or vehicle for thermal stability experiments.
Fluorescence-based thermal experiments were performed using a Prometheus NT.48 (NanoTemper Technologies, Germany) with grade standard capillaries containing 10 μL of RORγLBD with different ligands. […] NanoTemper PR. Stability Analysis v1.0.2 was used to fit the data and determine the melting temperatures Tm.

full-length human RORγ = target: T3, full-length human RORγ (Homo sapiens, UniProt P51449); assay: Full-length RORγ luciferase assay (RORE-LUC reporter); format: cell-based
T3 construct: Encodes for the full-length human RORγ; expressed in transfected cells; host or cells: HEK293
T3 sequence (P51449 1-518): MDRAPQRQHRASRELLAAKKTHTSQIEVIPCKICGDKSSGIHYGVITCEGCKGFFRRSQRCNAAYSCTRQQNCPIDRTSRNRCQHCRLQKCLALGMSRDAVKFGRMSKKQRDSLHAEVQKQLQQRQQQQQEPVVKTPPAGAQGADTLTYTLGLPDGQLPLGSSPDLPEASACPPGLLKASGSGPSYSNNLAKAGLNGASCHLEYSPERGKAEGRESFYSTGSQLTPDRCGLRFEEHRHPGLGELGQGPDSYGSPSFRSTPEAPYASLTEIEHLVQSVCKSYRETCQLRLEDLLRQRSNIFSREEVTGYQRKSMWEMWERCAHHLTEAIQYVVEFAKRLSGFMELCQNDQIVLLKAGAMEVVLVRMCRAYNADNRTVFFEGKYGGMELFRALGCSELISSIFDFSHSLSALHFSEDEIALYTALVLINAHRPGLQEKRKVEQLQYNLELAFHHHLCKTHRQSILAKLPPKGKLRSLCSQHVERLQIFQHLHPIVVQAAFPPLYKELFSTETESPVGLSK
Description: (§1) For luciferase assays, 8 × 10^6 HEK293 cells were seeded on 150 mm cell culture dishes and incubated for 5 h. Afterward, cells were transfected with the calcium phosphate coprecipitation method using 5 μg of the nuclear receptor (Gal4-hRORγ or full-length human RORγ), 5 μg of a luciferase reporter (pTK-MH100 × 4-LUC for Gal4-hRORγ experiments or RORE-LUC for full-length human RORγ experiments) and 3 μg eGFP-N1 (for assessing transfection efficiency) plasmid DNA and incubated overnight. […] The medium was changed the following day, and cells were further incubated for another four to 5 h before trypsin/EDTA was added to detach them from the dishes. […] RLUs were normalized to relative fluorescence units (RFU) to account for differences in cell number and transfection efficiency and then normalized to the vehicle control. Results are expressed as fold activation relative to the vehicle control.
(§2) Concentration–response data were analyzed in GraphPad Prism version 10 by three-parameter logistic nonlinear regression, with the Hill slope constrained to a theoretical value of −1.0. An IC50 value was determined only for compounds yielding a statistically reliable fit. […] In these cases, only the maximal inhibition achieved at the highest tested concentration (I max(%) at 5 μM) is reported, calculated as follows: Imax(%)=(1−Bottom/Top)×100 (“top” = baseline activity measured at the lowest concentration, “bottom” = residual activity observed at the highest concentration, corresponding to the maximal inhibitory effect).

Gal4-hRORγ = target: T4, Gal4-hRORγ (Homo sapiens, UniProt P51449); assay: Gal4-RORγ mammalian one-hybrid luciferase assay; format: cell-based; details: HEK293 cells; for IC50: 18 h treatment, up to 5 μM
T4 construct: Encodes for a hRORγ-LBD:Gal4-DBD fusion protein; expressed in transfected cells; host or cells: HEK293
T4 sequence (P51449 269-508 limits assumed): T1 sequence (P51449 269-508 H479L limits assumed) with L211H
Description: as §1, §2

RORγ = tested on: RORγ; parameters: method as in numbers not given; details: Figure 4, collected from the literature; ref numbers not given; cited from earlier work
[2] = pretreated 20–24 h at indicated concentrations

C=C(C)[C@@H]1CC[C@]2(C(=O)OC)CC[C@]3(C)[C@H](CC[C@@H]4[C@@]5(C)C/C(=C/c6ccco6)C(=O)C(C)(C)[C@@H]5CC[C@]43C)[C@@H]12 [Compound 15.4]
Activity on Gal4-RORγ H479L vs WT (Gal4-RORγ H479L): remained inactive | Il17a/f expression [1, 2]: slightly but significantly up-regulated | ΔTm measured with nano differential scanning fluorimetry (hRORγ LBD): 1.1 ± 0.2 °C | Imax(%) at 5 μM, full-length RORγ luciferase assay (full-length human RORγ; HEK293 cells): 0% | Imax(%) at 5 μM, Gal4-RORγ luciferase assay (Gal4-hRORγ): 0%

CC(C)=CCC[C@H](C)[C@H]1CC[C@H]2C3=C(CC[C@]12C)[C@@]1(C)CC[C@H](O)[C@@](C)(C(=O)O)C1CC3 (stereo partly drawn) [4α-carboxy-4β-methyl-zymosterol]
RORγ inverse agonist or agonist (RORγ): Agonist

C=C1C[C@]2(C)[C@H]3CC[C@@H]4[C@H]5[C@H](C(=C)C)CC[C@]5(C(=O)NCCCN(C)C)CC[C@@]4(C)[C@]3(C)CC[C@H]2C(C)(C)C1=O [Compound 25]
RORγ inverse agonist or agonist (RORγ): Inverse agonist

CC(C)CCC[C@H](CCCC(C)(C)O)[C@H]1CC[C@H]2[C@@H]3CC=C4C[C@@H](O)CC[C@]4(C)[C@H]3CC[C@]12C [Gemini-cholesterol analogue]
RORγ inverse agonist or agonist (RORγ): Inverse agonist

C=C(C)[C@@H]1CC[C@]2(C(=O)O)CC[C@]3(C)[C@H](CC[C@@H]4[C@@]5(C)C/C(=C\c6ccccc6OC)C(=O)C(C)(C)[C@@H]5CC[C@]43C)[C@@H]12 [Compound 15.1]
Il17a/f expression [1, 2]: inactive | ΔTm measured with nano differential scanning fluorimetry (hRORγ LBD): 5.9 ± 0.4 °C | Imax(%) at 5 μM, full-length RORγ luciferase assay (full-length human RORγ; HEK293 cells): 24% | Imax(%) at 5 μM, Gal4-RORγ luciferase assay (Gal4-hRORγ): 34%

C=C(C)[C@@H]1CC[C@]2(C(=O)NCCCN(C)C)CC[C@]3(C)[C@H](CC[C@@H]4[C@@]5(C)CC[C@H](O)C(C)(C)[C@@H]5CC[C@]43C)[C@@H]12 [Compound 24]
RORγ inverse agonist or agonist (RORγ): Inverse agonist

C=C(C)[C@@H]1CC[C@]2(C=O)CC[C@]3(C)[C@H](CC[C@@H]4[C@@]5(C)CC[C@H](O)C(C)(C)[C@@H]5CC[C@]43C)[C@@H]12 [Betulinaldehyde]
RORγ inverse agonist or agonist (RORγ): Agonist

C=C(C)[C@@H]1CC[C@]2(C(=O)O)CC[C@]3(C)[C@H](CC[C@@H]4[C@@]5(C)C/C(=C/c6ccccc6)C(=O)C(C)(C)[C@@H]5CC[C@]43C)[C@@H]12 [Compound 15.3]
Activity on Gal4-RORγ H479L vs WT (Gal4-RORγ H479L): loss of activity | Il17a/f expression [1, 2]: significant and concentration-dependent reduction | ΔTm measured with nano differential scanning fluorimetry (hRORγ LBD): 2.8 ± 0.2 °C | Imax(%) at 5 μM, full-length RORγ luciferase assay (full-length human RORγ; HEK293 cells): 67% | IC50 (full-length human RORγ; HEK293 cells, 18 h treatment, up to 5 μM, read-out: IC50, full-length RORγ luciferase assay): > 5 µM | IC50 (full-length human RORγ; exceeds the highest concentration tested, only an estimate, read-out: Estimated IC50, full-length RORγ luciferase assay): 5.7 µM | Imax(%) at 5 μM, Gal4-RORγ luciferase assay (Gal4-hRORγ): 53% | IC50 (Gal4-hRORγ): 2.7 µM

C=C(C)[C@@H]1CC[C@]2(C(=O)O)CC[C@]3(C)[C@H](CC[C@@H]4[C@@]5(C)C/C(=C/c6cccc(I)c6)C(=O)C(C)(C)[C@@H]5CC[C@]43C)[C@@H]12 [Compound 15.2]
Activity on Gal4-RORγ H479L vs WT (Gal4-RORγ H479L): loss of activity | Il17a/f expression [1, 2]: significant and concentration-dependent reduction | ΔTm measured with nano differential scanning fluorimetry (hRORγ LBD): 2.2 ± 0.5 °C | Imax(%) at 5 μM, full-length RORγ luciferase assay (full-length human RORγ; HEK293 cells): 55% | Imax(%) at 5 μM, Gal4-RORγ luciferase assay (Gal4-hRORγ): 58% | IC50 (Gal4-hRORγ): 3.1 µM

C[C@@H]1CC[C@@]2(OC1)O[C@H]1C[C@H]3[C@@H]4CC=C5C[C@@H](O)CC[C@]5(C)[C@H]4CC[C@]3(C)[C@H]1[C@@H]2C [Diosgenin]
RORγ inverse agonist or agonist (RORγ): Inverse agonist

OC(c1ccc(-c2ccc(CN3CCN(Cc4ccncc4)CC3)cc2)c(F)c1)(C(F)(F)F)C(F)(F)F [SR2211, reference compound]
Il17a/f expression ([1]; 5 μM, 20–24 h): significant and reproducible down-regulation

C[C@H]1[C@H](C)CC[C@]2(C(=O)O)CC[C@]3(C)C(=CC[C@@H]4[C@@]5(C)CCC(=O)C(C)(C)[C@@H]5CC[C@]43C)[C@H]12 [Ursonic acid]
RORγ inverse agonist or agonist (RORγ): Inverse agonist

C[C@H]1[C@H](C)CC[C@]2(C(=O)O)CC[C@]3(C)C(=CC[C@@H]4[C@@]5(C)CC[C@H](O)C(C)(C)[C@@H]5CC[C@]43C)[C@H]12 [Ursolic acid]
RORγ inverse agonist or agonist (RORγ): Inverse agonist

COc1ccc(CC(=O)Nc2cc3oc4ccccc4c3cc2OC)cc1 [Compound 5]
Activity in Gal4-RORγ luciferase assay (initial screen) (Gal4-hRORγ; 3 μM): agonistic activity

Source: PMC12379159 (Journal of Natural Products, 2025)
